Assay results reported in EP0755386B1, “BENZAMIDE DERIVATIVE, COMPOSITIONS CONTAINING SAID DERIVATIVE AND USE THEREOF” (Romark Laboratories, L.C., priority 1994, dated 1995).
Values after ≈ are worked out from the molar mass of the structure shown. Read-outs that look alike come from different tables or passages of the source.

Columns and labels:
Trichomonas vaginalis [1] = assay: In vitro studies against Trichomonas vaginalis; format: cell-based; settings: for MIC: in vitro, Trichomonas vaginalis, read-out: Minimum Inhibitory Concentration
HBV = assay: Antiviral activity against HBV replication in cultures of 2.2.15 cells; format: cell-based; settings: for selective index SI: HBV, CC 50/EC 50; for EC50: Hepatitis B virus, 216 h, read-out: effective concentration (EC 50)
Procedure: (§1) The protocol for essaying anti-HBV compounds in cultures of 2.2.15 cells can be briefly summarized as follows (Korba and Milman, 1991, Antiviral Res. 217:217) : • * Chronically HBV-producing human liver cells (Acs, et al, 1987, PNAS 84:4641) are seeded into 24 well tissue culture plates and grown to confluence. • * Test compounds are then added daily for a continuous 9 day period. Culture medium (changed daily during the treatment period) is collected and stored for analysis of extracellular (virion) HBV DNA after 0,3,6 and 9 days of treatment. • * Treated cells are lysed 24 hours following day 9 of treatment for the analysis of intracellular HBV genomic forms. • * HBV DNA is then analyzed in a quantitative and qualitative manner for overall levels of HBV DNA (both extracellular and intracellular DNA) and the relative rate of HBV replication (intracellular DNA). The protocol for determining toxicity of compounds in cultures of 2.2.15 cells can be briefly summarized as follows (Korba and Gerin, submited for publication) : • * 2.2.15 cells were grown to confluence in 96 well fat-bottomed tissue culture plates and treated with compounds (in 0.2 ml culture medium/well) as described above. Four concentrations of each compound were assayed, each in triplicate cultures, 3 to 10-fold steps. • * Untreated control cultures were maintained on each 96 well plate.

[2] = Toxicity in cultures of 2.2.15 cells, neutral red dye uptake; format: cell-based; settings: human, 50 % inhibit of cell proliferation, read-out: cytotoxic concentration (CC 50)
Procedure: as §1

Cryptosporidium parvum = assay: Activity of aqueous compositions on protozoa; settings: aqueous composition (100 g) containing 10 g active agent
Description: (§2) Aqueous compositions (100 g) containing 10 g of an active agent have been prepared.

Bladtocystis hominis = assay: Activity of aqueous compositions on protozoa; settings: aqueous composition (100 g) containing 10 g active agent
Description: as §2

Enterocytozoon bieneusi = assay: Activity of aqueous compositions on protozoa; settings: aqueous composition (100 g) containing 10 g active agent
Description: as §2

Septata intestinalis = assay: Activity of aqueous compositions on protozoa; settings: aqueous composition (100 g) containing 10 g active agent
Description: as §2

Enterobius vermicularis = assay: Activity of aqueous compositions on helminths; settings: aqueous composition (100 g) containing 10 g active agent
Description: as §2

Ascaris lumbricoides = assay: Activity of aqueous compositions on helminths; settings: aqueous composition (100 g) containing 10 g active agent
Description: as §2

Necator americanus = assay: Activity of aqueous compositions on helminths; settings: aqueous composition (100 g) containing 10 g active agent
Description: as §2

Anycylosloma duodenale = assay: Activity of aqueous compositions on helminths; settings: aqueous composition (100 g) containing 10 g active agent
Description: as §2

Trichuris trichiura = assay: Activity of aqueous compositions on helminths; settings: aqueous composition (100 g) containing 10 g active agent
Description: as §2

[3] = test system: Strongyloïdes stercoralis; assay: Activity of aqueous compositions on helminths; settings: aqueous composition (100 g) containing 10 g active agent
Description: as §2

Taenia saginata = assay: Activity of aqueous compositions on helminths; settings: aqueous composition (100 g) containing 10 g active agent
Description: as §2

Taenia solium = assay: Activity of aqueous compositions on helminths; settings: aqueous composition (100 g) containing 10 g active agent
Description: as §2

Hymenolepis nana = assay: Activity of aqueous compositions on helminths; settings: aqueous composition (100 g) containing 10 g active agent
Description: as §2

Staphylococcus aureus = assay: Activity of aqueous compositions on aerobic bacteria; settings: aqueous composition (100 g) containing 10 g active agent
Description: as §2

Escherichia coli = assay: as above; settings: aqueous composition (100 g) containing 10 g active agent
Description: as §2

Protens vulgaris = assay: as above; settings: aqueous composition (100 g) containing 10 g active agent
Description: as §2

Candida Albicans = assay: Activity of aqueous compositions on fungus; settings: aqueous composition (100 g) containing 10 g active agent
Description: as §2

[4] = test system: Trychophyton Mentagrophytes; assay: Activity of aqueous compositions on fungus; settings: aqueous composition (100 g) containing 10 g active agent
Description: as §2

Microsporum audovini = assay: Activity of aqueous compositions on fungus; settings: aqueous composition (100 g) containing 10 g active agent
Description: as §2

Epidermophyton flocosum = assay: Activity of aqueous compositions on fungus; settings: aqueous composition (100 g) containing 10 g active agent
Description: as §2

Trichomonas vaginalis [5] = assay: Activity of aqueous compositions on protozoa; settings: aqueous composition (100 g) containing 10 g active agent
Description: as §2

Trichomonas intestinalis = assay: Activity of aqueous compositions on protozoa; settings: aqueous composition (100 g) containing 10 g active agent
Description: as §2

Encamoeba histolytica = assay: Activity of aqueous compositions on protozoa; settings: aqueous composition (100 g) containing 10 g active agent
Description: as §2

Encamoeba dispar = assay: Activity of aqueous compositions on protozoa; settings: aqueous composition (100 g) containing 10 g active agent
Description: as §2

Entamoeba coli = assay: Activity of aqueous compositions on protozoa; settings: aqueous composition (100 g) containing 10 g active agent
Description: as §2

Endolimax nana = assay: Activity of aqueous compositions on protozoa; settings: aqueous composition (100 g) containing 10 g active agent
Description: as §2

Balancidium coli = assay: Activity of aqueous compositions on protozoa; settings: aqueous composition (100 g) containing 10 g active agent
Description: as §2

Diencamoeba fragilis = assay: Activity of aqueous compositions on protozoa; settings: aqueous composition (100 g) containing 10 g active agent
Description: as §2

Giarda lamblia = assay: Activity of aqueous compositions on protozoa; settings: aqueous composition (100 g) containing 10 g active agent
Description: as §2

Isospora belli = assay: Activity of aqueous compositions on protozoa; settings: aqueous composition (100 g) containing 10 g active agent
Description: as §2

Bacceroides species = assay: Activity of aqueous compositions on anaerobic bacteria; settings: aqueous composition (100 g) containing 10 g active agent
Description: as §2

Peptococcus species = assay: as above; settings: aqueous composition (100 g) containing 10 g active agent
Description: as §2

Peptostreptococcus SPP = assay: as above; settings: aqueous composition (100 g) containing 10 g active agent
Description: as §2

Fusobacterium SPP = assay: as above; settings: aqueous composition (100 g) containing 10 g active agent
Description: as §2

Clostridum species = assay: as above; settings: aqueous composition (100 g) containing 10 g active agent
Description: as §2

| Structure (SMILES) | MIC (Trichomonas vaginalis [1]) | selective index SI (HBV) | CC50 at 9 days [2] | ACTIVITY (Cryptosporidium parvum) | ACTIVITY (Bladtocystis hominis) | ACTIVITY (Enterocytozoon bieneusi) | ACTIVITY (Septata intestinalis) | ACTIVITY [3] | ACTIVITY (Taenia saginata) | ACTIVITY (Taenia solium) | ACTIVITY (Hymenolepis nana) | ACTIVITY (Staphylococcus aureus) | ACTIVITY (Escherichia coli) | ACTIVITY (Protens vulgaris) | ACTIVITY (Candida Albicans) | ACTIVITY [4] | ACTIVITY (Microsporum audovini) | ACTIVITY (Epidermophyton flocosum) | ACTIVITY (Trichomonas vaginalis [5]) | ACTIVITY (Trichomonas intestinalis) | other results |
| --- | --- | --- | --- | --- | --- | --- | --- | --- | --- | --- | --- | --- | --- | --- | --- | --- | --- | --- | --- | --- | --- |
| O=C(Nc1ncc([N+](=O)[O-])s1)c1ccccc1O [Compound A, 2-(hydroxy)-N-(5-nitro-2-thiazolyl) benzamide] | 1 to 1.25 µg/mL (≈ 3.77 to 4.71 µM) | higher than 500 | > 1000 µg/mL |  |  |  |  |  |  |  |  |  |  |  |  |  |  |  |  |  | onset of action (Trichomonas vaginalis [1]; in vitro studies): substantially immediate action; EC50 (HBV): 1.8 ± 0.1 µg/mL (≈ 6.79 µM) |
| Cc1ncc([N+](=O)[O-])n1CCO [Compound P5, Metronidazole] |  |  |  | No | No | No | No | No | No | No | No | No | No | No | No | No | No | No |  |  | ACTIVITY (Enterobius vermicularis): No; ACTIVITY (Ascaris lumbricoides): No; ACTIVITY (Necator americanus): No; ACTIVITY (Anycylosloma duodenale): No; ACTIVITY (Trichuris trichiura): No |
| COC(=O)Nc1nc2ccc(C(=O)c3ccccc3)cc2[nH]1 [Compound P4, Mebendazole] |  |  |  | No | No | No | No | No | No | No | No | No | No | No | No | No | No | No | No | No | ACTIVITY (Encamoeba histolytica): No; ACTIVITY (Encamoeba dispar): No; ACTIVITY (Entamoeba coli): No; ACTIVITY (Endolimax nana): No; ACTIVITY (Balancidium coli): No; ACTIVITY (Diencamoeba fragilis): No; ACTIVITY (Giarda lamblia): No; ACTIVITY (Isospora belli): No; ACTIVITY (Bacceroides species): No; ACTIVITY (Peptococcus species): No; ACTIVITY (Peptostreptococcus SPP): No; ACTIVITY (Fusobacterium SPP): No; ACTIVITY (Clostridum species): No |
| Nc1ccn([C@H]2CC[C@@H](CO)O2)c(=O)n1 [Zalcitabine] |  | about 145 | 261 ± 24 µg/mL (≈ 1240 µM) |  |  |  |  |  |  |  |  |  |  |  |  |  |  |  |  |  | EC50 (HBV; HBV replication in 2.2.15 cells, 9 day treatment): 1.8 ± 0.2 µg/mL (≈ 8.52 µM) |
| CC(=O)Oc1ccccc1C(=O)Nc1ncc([N+](=O)[O-])s1 [Compound B, 2-(acetolyloxy)-N-(5-nitro 2-thiazolyl) benzamide] | 0.5 to 1.25 µg/mL (≈ 1.63 to 4.07 µM) |  |  |  |  |  |  |  |  |  |  |  |  |  |  |  |  |  |  |  |  |
| CCCSc1ccc2nc(NC(=O)OC)[nH]c2c1 [Compound P3, Albendazole] |  |  |  | No | No | No | No | No | No | No | No | No | No | No | No |  |  |  | No | No | ACTIVITY (Encamoeba histolytica): No; ACTIVITY (Encamoeba dispar): No; ACTIVITY (Entamoeba coli): No; ACTIVITY (Endolimax nana): No; ACTIVITY (Balancidium coli): No; ACTIVITY (Diencamoeba fragilis): No; ACTIVITY (Giarda lamblia): No; ACTIVITY (Bacceroides species): No; ACTIVITY (Peptococcus species): No; ACTIVITY (Peptostreptococcus SPP): No; ACTIVITY (Fusobacterium SPP): No; ACTIVITY (Clostridum species): No |
